{"source": "PubChem BioAssay AID1996", "data": [{"settings": "buffer; pH 7.4; 200.0 µM", "units": {"solubility kinetic": "µg/mL"}, "values": [{"smiles": "Cc1[nH]c(=S)c(C#N)c(-c2ccco2)c1C(=O)N(C)C", "solubility kinetic": "> 43.1"}, {"smiles": "c1ccc(C2CCC(N3CCN(c4ccccc4)CC3)CC2)cc1", "note": "(centres undefined)", "solubility kinetic": 1.3}, {"smiles": "O=C(Nc1cccc(S(=O)(=O)N2CCCC2)c1)c1cccnc1", "solubility kinetic": 37.7}, {"smiles": "Cc1nnc(SCC(=O)N2CCCC2)n(N)c1=O", "solubility kinetic": "> 40.4"}, {"smiles": "CCOc1ccc(S(=O)(=O)N(CC)CC(=O)N2CCCC2)cc1", "solubility kinetic": "> 51.1"}, {"smiles": "C[N+]1(C)CCCC(OC(=O)C(O)(c2ccccc2)c2ccccc2)C1.[Br-]", "note": "(centres undefined)", "solubility kinetic": "> 63.1"}, {"smiles": "CC1CC(OCC(O)CN2CCCCC2C)CC(C)(C)C1.Cl", "note": "(centres undefined)", "solubility kinetic": "> 50.1"}, {"smiles": "Cn1c(CC(=O)Nc2ccccc2)cc2ccccc21", "solubility kinetic": 1.7}, {"smiles": "COc1ccccc1CC(=O)NCCc1ccccc1", "solubility kinetic": "> 40.4"}, {"smiles": "Cn1c(=NC(=O)C(C)(C)C)sc2cccc(F)c21", "solubility kinetic": 1}, {"smiles": "COc1cc(CN2CCCCCC2)cc([N+](=O)[O-])c1O", "solubility kinetic": 35.6}, {"smiles": "COc1ccc(OC)c(S(=O)(=O)NCCCc2ccccc2)c1", "solubility kinetic": 27.4}, {"smiles": "O=C(/C=C/c1ccc(OCCCF)cc1)N1CCOCC1", "solubility kinetic": "> 44"}, {"smiles": "CCC(C(=O)OCC(=O)Nc1ccc(OC)cc1OC)c1ccccc1", "note": "(centres undefined)", "solubility kinetic": 3.5}, {"smiles": "O=C(Nc1ccc2c(c1)OCCO2)c1ccccc1", "solubility kinetic": "> 38.3"}, {"smiles": "Cc1ccc(NC(=O)N2CCC(C(=O)c3ccc(F)cc3)CC2)cc1", "solubility kinetic": 0.6}, {"smiles": "O=C(O)C1CC(=O)N(CCc2ccc(F)cc2)C1", "note": "(centres undefined)", "solubility kinetic": "> 37.7"}, {"smiles": "COc1ccc(CSC2=NCCN2)cc1Br", "solubility kinetic": 30.9}, {"smiles": "Cc1cc(=O)oc2c(CN3CCCC3)c(O)ccc12", "solubility kinetic": "> 38.9"}, {"smiles": "Cc1ccc(S(=O)(=O)Nc2ccc(F)c(S(=O)(=O)N3CCOCC3)c2)cc1", "solubility kinetic": "> 62.2"}, {"smiles": "Cc1ccc(N2C(=O)CC(Cc3cc(C)cc(C)c3)C2=O)cc1", "note": "(centres undefined)", "solubility kinetic": 8.8}, {"smiles": "COc1ccc(Cl)c(OC)c1C(=O)NC(=O)Nc1nc(C)nc(C)n1", "solubility kinetic": 51.4}, {"smiles": "C=CCOn1c(=O)c(-c2ccc(Br)cc2)[n+]([O-])c2ccccc21", "solubility kinetic": 0.4}, {"smiles": "CCOC(=O)C1CCN(C(=O)Nc2cccc(OC)c2)CC1", "solubility kinetic": "> 46"}, {"smiles": "CC(C)(C)CC(=O)Nc1cc2c3c(c1)CCN3C(=O)CC2", "solubility kinetic": "> 43"}, {"smiles": "S=C(NCCc1ccccc1)N1CCN(C2CCCCC2)CC1", "solubility kinetic": 16.6}, {"smiles": "CC(=O)c1sc(Nc2cccc3ccccc23)nc1C.Cl", "solubility kinetic": 5.2}, {"smiles": "N/C(=N\\OC(=O)c1ccccc1F)c1ccc([N+](=O)[O-])cc1", "solubility kinetic": 2.3}, {"smiles": "Cn1c(SCc2ccc([N+](=O)[O-])cc2)nnc1-c1ccncc1", "solubility kinetic": "> 49.1"}, {"smiles": "O=C(Nc1ccc2ccccc2c1)c1cccc([N+](=O)[O-])c1", "solubility kinetic": "< 0.3"}, {"smiles": "COc1ccc(NC(=O)COC(=O)CCc2ccccc2)c(OC)c1", "solubility kinetic": 5.2}, {"smiles": "O=C(NC1CCCCC1)c1ccc(-c2ccccc2[N+](=O)[O-])o1", "solubility kinetic": 2.9}, {"smiles": "O=C(Cc1c(F)cccc1Cl)NC1CCN(Cc2ccccc2)CC1", "solubility kinetic": 50.5}, {"smiles": "COc1ccc(C(=O)C2CCCN(S(=O)(=O)C(C)C)C2)c(C)c1", "note": "(centres undefined)", "solubility kinetic": 45.4}, {"smiles": "CC(C)c1ccc(NS(=O)(=O)c2cccc3cccnc23)cc1", "solubility kinetic": "< 0.3"}, {"smiles": "CC1CC(C)CN(C(=O)CNC(=O)c2ccc3ccccc3c2)C1", "note": "(centres undefined)", "solubility kinetic": "> 48.7"}, {"smiles": "Cc1cccc(N2CCN(S(=O)(=O)c3ccc(Cl)nc3)CC2C)c1", "note": "(centres undefined)", "solubility kinetic": 3.6}, {"smiles": "O=C1CC2(CCCC2)CC(=O)N1c1ccccc1", "solubility kinetic": "> 36.5"}, {"smiles": "N#Cc1ccccc1NC(=O)c1ccc2c(c1)OCO2", "solubility kinetic": 10.8}, {"smiles": "CCCCn1c(O)c(C(C)=NCc2ccco2)c(=O)[nH]c1=O", "solubility kinetic": 9.1}, {"smiles": "CC(=O)Nc1cccc(C(=O)OCC(=O)Nc2ccc(Cl)cn2)c1", "solubility kinetic": 6.9}, {"smiles": "Cc1cc(NC(=O)COc2ccc3ccccc3c2)no1", "solubility kinetic": 0.6}, {"smiles": "Cc1ccc(N/C=C2\\CCCCC2=O)nc1", "solubility kinetic": 31.6}, {"smiles": "CCCC/C(O)=C1\\C(=O)CC(C)(C)CC1=NCCCCCC(=O)O", "solubility kinetic": "> 50.6"}, {"smiles": "COCCNC(=O)c1ccc(-c2csc(C)n2)cc1", "solubility kinetic": "> 41.5"}, {"smiles": "Cc1nc2ccc(NC(=O)Cc3ccccc3F)cc2s1", "solubility kinetic": 8}, {"smiles": "Cc1ccc(S(=O)(=O)CC(=O)N2CCN(c3ccc([N+](=O)[O-])cc3)CC2)cc1", "solubility kinetic": 24.7}, {"smiles": "COc1cc(CN2CCC(Cc3ccccc3)CC2)c([N+](=O)[O-])cc1OC", "solubility kinetic": 33.5}, {"smiles": "COc1ccc(/C(C)=N/N2C(C)CCCC2C)c(OC)c1", "note": "(centres undefined)", "solubility kinetic": "> 43.6"}, {"smiles": "O=C(Cn1cc(C(F)(F)F)ccc1=O)Nc1ccccc1", "solubility kinetic": 10}, {"smiles": "CNC(=O)CCc1ccc(OC)cc1", "solubility kinetic": "> 29"}, {"smiles": "COc1cccc(NC(=O)CN2C(=O)NC(C)(CC(C)C)C2=O)c1", "note": "(centres undefined)", "solubility kinetic": "> 50"}, {"smiles": "COc1ccc(Cl)cc1NC(=O)CN1CCCCCC1", "solubility kinetic": 2.1}, {"smiles": "Nc1ccc(S(=O)(=O)NCc2ccccn2)cc1", "solubility kinetic": "> 39.5"}, {"smiles": "Cc1ccc(C2CCN(C(=S)Nc3cccc(Cl)c3)C2)cc1", "note": "(centres undefined)", "solubility kinetic": "< 0.4"}, {"smiles": "CC(O)c1nc2ccccc2n1CCCOc1ccccc1", "note": "(centres undefined)", "solubility kinetic": "> 44.5"}, {"smiles": "Cn1c(=O)c2c(O)c(C=NCc3ccccc3)c(=O)n(C)c2n(C)c1=O", "solubility kinetic": 51.3}, {"smiles": "CNC(=S)/N=C/NOCc1c(Cl)cccc1Cl", "solubility kinetic": 9.5}, {"smiles": "Cc1ccc(CCNC(=O)CSCc2ccc(F)cc2)cc1", "solubility kinetic": 13.5}]}]}
